Test results taken from PubChem BioAssay AID248 (DTP/NCI, 2004).
Several values for one entry are separate records, joined by “and”; a condition that tells them apart may be missing. Equal entries are not always repeated. Toxic doses and inconclusive results are not listed. Rule as the data show it: active = T/C of 150% or more; inactive = T/C below 125%.

System: L1210 leukemia ip in BDF1 mice, survival T/C
Assay: NCI In Vivo Anticancer Drug Screen. Data for tumor model L1210 Leukemia (intraperitoneal) in B6D2F1 (BDF1) mice
Settings: endpoint: mean survival time, higher = longer survival
Summary of the method: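 Tumor cells were implanted, animals were treated, and survival was followed. The result divides the treated measurement by the vehicle-control measurement.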

[1] = dose: 100.0 mg/kg/injection, schedule: Q04DX003 (ip), vehicle: Klucel (hydroxypropylcellulose) (HPC)
[2] = dose: 200.0 mg/kg/injection, schedule: Q04DX003 (ip), vehicle: Klucel (hydroxypropylcellulose) (HPC)
[3] = dose: 400.0 mg/kg/injection, schedule: Q04DX003 (ip), vehicle: Klucel (hydroxypropylcellulose) (HPC)
[4] = dose: 100.0 mg/kg/injection, schedule: Q04DX002 (ip), vehicle: Klucel (hydroxypropylcellulose) (HPC)
[5] = dose: 200.0 mg/kg/injection, schedule: Q04DX002 (ip), vehicle: Klucel (hydroxypropylcellulose) (HPC)
[6] = dose: 400.0 mg/kg/injection, schedule: Q04DX002 (ip), vehicle: Klucel (hydroxypropylcellulose) (HPC)

Measured: T/C

O=C1OCC2CC3c4ccccc4C12c1ccccc13 (configuration not stated)
inactive: dose: 100.0 mg/kg/injection, schedule: Q01DX001 (ip), vehicle: Klucel (hydroxypropylcellulose) (HPC) 100 % of control | [1] 98 % of control | dose: 200.0 mg/kg/injection, schedule: Q01DX001 (ip), vehicle: Klucel (hydroxypropylcellulose) (HPC) 92 % of control | [2] 93 % of control | dose: 400.0 mg/kg/injection, schedule: Q01DX001 (ip), vehicle: Klucel (hydroxypropylcellulose) (HPC) 105 % of control | [3] 97 % of control

c1ccc(N2CCN(Cc3ccc4ccccc4c3)CC2)cc1
inactive: dose: 100.0 mg/kg/injection, schedule: Q01DX001 (ip), vehicle: saline with Tween-80 96 % of control | dose: 200.0 mg/kg/injection, schedule: Q01DX001 (ip), vehicle: saline with Tween-80 100 % of control | dose: 400.0 mg/kg/injection, schedule: Q01DX001 (ip), vehicle: saline with Tween-80 91 % of control

CSc1ccccc1C=O
inactive: dose: 100.0 mg/kg/injection, schedule: Q01DX009 (ip), vehicle: Klucel (hydroxypropylcellulose) (HPC) 114 % of control | [1] 94 % of control | dose: 200.0 mg/kg/injection, schedule: Q01DX009 (ip), vehicle: Klucel (hydroxypropylcellulose) (HPC) 105 % of control | [2] 95 % of control | dose: 400.0 mg/kg/injection, schedule: Q01DX009 (ip), vehicle: Klucel (hydroxypropylcellulose) (HPC) 106 % of control | [3] 95 % of control

CC(=N\NC(N)=S)/C(=N/NC(N)=S)c1ccccc1
inactive: dose: 15.0 mg/kg/injection, schedule: Q01DX Z (ip), vehicle: carboxymethylcellulose (CMC) 107 % of control | dose: 30.0 mg/kg/injection, schedule: Q01DX Z (ip), vehicle: carboxymethylcellulose (CMC) 97 % of control | dose: 60.0 mg/kg/injection, schedule: Q01DX Z (ip), vehicle: carboxymethylcellulose (CMC) 95 % of control and 90 % of control | dose: 120.0 mg/kg/injection, schedule: Q01DX Z (ip), vehicle: carboxymethylcellulose (CMC) 93 % of control and 91 % of control | dose: 120.0 mg/kg/injection, schedule: Q01DX Z (oral), vehicle: carboxymethylcellulose (CMC) 110 % of control | dose: 240.0 mg/kg/injection, schedule: Q01DX Z (oral), vehicle: carboxymethylcellulose (CMC) 100 % of control | dose: 480.0 mg/kg/injection, schedule: Q01DX Z (ip), vehicle: carboxymethylcellulose (CMC) 88 % of control | dose: 480.0 mg/kg/injection, schedule: Q01DX Z (oral), vehicle: carboxymethylcellulose (CMC) 115 % of control | dose: 960.0 mg/kg/injection, schedule: Q01DX Z (oral), vehicle: carboxymethylcellulose (CMC) 104 % of control

CC(=O)Nc1ccc(S(=O)(=O)Cl)cc1Cl
inactive: dose: 75.0 mg/kg/injection, schedule: Q01DX001 (ip), vehicle: saline 96 % of control | dose: 150.0 mg/kg/injection, schedule: Q01DX001 (ip), vehicle: saline 98 % of control | dose: 300.0 mg/kg/injection, schedule: Q01DX001 (ip), vehicle: saline 99 % of control

COc1cc(C(=O)CCC(=O)O)c(OC)c(C)c1C
inactive: dose: 100.0 mg/kg/injection, schedule: Q01DX001 (ip), vehicle: other 93 % of control | dose: 200.0 mg/kg/injection, schedule: Q01DX001 (ip), vehicle: other 96 % of control | dose: 400.0 mg/kg/injection, schedule: Q01DX001 (ip), vehicle: other 91 % of control

CC(=O)O[C@H]1CC[C@H]2[C@@H]3CC[C@H]4C[C@@H]5[C@H](C[C@]4(C)[C@H]3CC[C@]12C)C5(F)F
inactive: dose: 50.0 mg/kg/injection, schedule: Q01DX001 (sc), vehicle: steriod suspending solution 102 % of control | dose: 50.0 mg/kg/injection, schedule: Q01DX009 (sc), vehicle: steriod suspending solution 103 % of control | dose: 100.0 mg/kg/injection, schedule: Q01DX001 (sc), vehicle: steriod suspending solution 101 % of control | dose: 100.0 mg/kg/injection, schedule: Q01DX009 (sc), vehicle: steriod suspending solution 105 % of control | dose: 200.0 mg/kg/injection, schedule: Q01DX001 (sc), vehicle: steriod suspending solution 98 % of control | dose: 200.0 mg/kg/injection, schedule: Q01DX009 (sc), vehicle: steriod suspending solution 102 % of control | dose: 400.0 mg/kg/injection, schedule: Q01DX001 (sc), vehicle: steriod suspending solution 101 % of control | dose: 400.0 mg/kg/injection, schedule: Q01DX009 (sc), vehicle: steriod suspending solution 102 % of control

CSc1ccc(NC(=O)C(O)C(O)C(O)C(O)CO)cc1 (configuration not stated)
inactive: dose: 100.0 mg/kg/injection, schedule: Q04DX003 (ip), vehicle: saline with Tween-80 89 % of control | dose: 200.0 mg/kg/injection, schedule: Q04DX003 (ip), vehicle: saline with Tween-80 100 % of control | dose: 400.0 mg/kg/injection, schedule: Q04DX003 (ip), vehicle: saline with Tween-80 95 % of control

CC12CCC3c4ccc(OCC5CO5)cc4CCC3C1CCC2=O (configuration not stated)
inactive: dose: 50.0 mg/kg/injection, schedule: Q01DX009 (ip), vehicle: saline with Tween-80 97 % of control | dose: 100.0 mg/kg/injection, schedule: Q01DX009 (ip), vehicle: saline with Tween-80 97 % of control | dose: 200.0 mg/kg/injection, schedule: Q01DX009 (ip), vehicle: saline with Tween-80 94 % of control

CC1CCN(P(c2ccccc2)N2CCC(C)CC2)CC1
inactive: [4] 97 % of control | [5] 97 % of control | [6] 100 % of control

Cc1ccccc1NC(N)=O
inactive: [1] 110 % of control | [2] 105 % of control | [3] 103 % of control

ClCC1=NC2C(Cl)C(Cl)C(Cl)C(Cl)C2N1 (configuration not stated)
inactive: [4] 111 % of control | [5] 100 % of control | [6] 100 % of control

O=S(=O)(c1ccccc1)C1C2CCC(O2)C1S(=O)(=O)c1ccccc1 (configuration not stated)
inactive: [4] 103 % of control | [5] 92 % of control | [6] 89 % of control

O=C(O)COc1cc(Cl)c(Cl)cc1Cl (tested in a mixture with another compound)
inactive: dose: 25.0 mg/kg/injection, schedule: Q01DX001 (ip), vehicle: saline 110 % of control | dose: 50.0 mg/kg/injection, schedule: Q01DX001 (ip), vehicle: saline 93 % of control

Cc1cccc(N2C(=O)C3C(C2=O)C2(Cl)C(Cl)=C(Cl)C3(Cl)C2(Cl)Cl)c1C (configuration not stated)
inactive: dose: 3.0 mg/kg/injection, schedule: Q01DX009 (ip), vehicle: Klucel (hydroxypropylcellulose) (HPC) 96 % of control | dose: 6.0 mg/kg/injection, schedule: Q01DX009 (ip), vehicle: Klucel (hydroxypropylcellulose) (HPC) 102 % of control | dose: 12.5 mg/kg/injection, schedule: Q01DX009 (ip), vehicle: Klucel (hydroxypropylcellulose) (HPC) 111 % of control | dose: 25.0 mg/kg/injection, schedule: Q01DX009 (ip), vehicle: Klucel (hydroxypropylcellulose) (HPC) 107 % of control | dose: 50.0 mg/kg/injection, schedule: Q01DX009 (ip), vehicle: Klucel (hydroxypropylcellulose) (HPC) 103 % of control

O=C1NC(c2ccccc2)C(c2ccccc2)N1 (configuration not stated)
inactive: dose: 100.0 mg/kg/injection, schedule: Q01DX001 (ip), vehicle: saline 97 % of control | dose: 200.0 mg/kg/injection, schedule: Q01DX001 (ip), vehicle: saline 100 % of control | dose: 400.0 mg/kg/injection, schedule: Q01DX001 (ip), vehicle: saline 97 % of control

O=S(=O)(F)c1cc(Cl)cc(Cl)c1O
inactive: dose: 100.0 mg/kg/injection, schedule: Q04DX002 (ip), vehicle: other 93 % of control | dose: 200.0 mg/kg/injection, schedule: Q04DX002 (ip), vehicle: other 93 % of control | dose: 400.0 mg/kg/injection, schedule: Q04DX002 (ip), vehicle: other 104 % of control

CN(C)P(=O)(Oc1c(Cl)c(Cl)c(Cl)c(Cl)c1Cl)Oc1c(Cl)c(Cl)c(Cl)c(Cl)c1Cl
inactive: dose: 100.0 mg/kg/injection, schedule: Q04DX002 (ip), vehicle: saline with Tween-80 107 % of control | dose: 200.0 mg/kg/injection, schedule: Q04DX002 (ip), vehicle: saline with Tween-80 110 % of control | dose: 400.0 mg/kg/injection, schedule: Q04DX002 (ip), vehicle: saline with Tween-80 93 % of control
